The subject of assay [1] is de-endothelialized, pressurized MCA segments (C57BL/6 male). Briefly: EtOH-induced constriction of pressurized MCA in vitro. The settings on record: 10 µM PROG, 10-75 mM EtOH. Details: species or system mouse. From the text:
Eight-12 week-old C57BL/6J and KCNMB1^−/− on C57BL/6 background mice of both sexes were deeply anesthetized with isoflurane via inhalation in a tightly sealed jar. Resistance size MCAs (~100 μm in external diameter) were dissected out of the mouse brains after animal euthanasia with sharp scissors. For de-endothelialized records, the endothelium was removed by passing an air bubble into the vessel lumen for 90 s[30]. This method has been consistently used by our group and validated using endothelium-dependent versus endothelium-independent vasodilators[16],[26]. Arteries were cannulated as previously described by our group[26],[40]. MCAs were cut into 5 to 10 mm-long segments under a microscope (Nikon SMZ645). The segment was cannulated at each end, and the artery exterior was continuously perfused with physiologic sodium saline (PSS) of the following composition (mM): 119 NaCl, 4.7 KCl, 1.2 KH2PO4, 1.6 CaCl2, 1.2 MgSO4, 0.023 EDTA, 11 glucose, 24 NaHCO3, pH=7.4. PSS was continuously bubbled with an O2/CO2/N2 (21/5/74%) gas mixture and maintained at 35–37 °C. The artery external wall diameter was measured using the automatic edge-detection function of lonWizard software (lonOptix) via Sanyo VCB-3512T camera (Sanyo Electric Co.). Arteries were first incubated at an intravascular pressure of 10 mm Hg for 10 min. Then intravascular pressure was increased to 60 mmHg and held steady throughout the experiment to induce myogenic tone development and maintenance[19],[30],[51]. Each artery segment was exposed to PROG, PROG-oxime (in presence and absence of 1 µM paxilline) only once to avoid development of desensitization during repeated applications of PROG-containing solution. To determine arterial viability, arterial contractility was probed with a high KCl solution at the end of each experiment. The high KCl solution was composed of the following composition (mM): 63.7 NaCl, 60 KCl, 1.2 KH2PO4, 1.2 MgSO4, 0.023 EDTA, 11 glucose, 24 NaHCO3, 1.6 CaCl2, pH=7.4. Like PSS, the high-KCl solution was continuously bubbled with O2/CO2/N2 (21/5/74%) gas mixture and maintained at 35–37 °C.

For assay [2], the target named is T1, slo1 (cbv1) homotetramers (Rattus norvegicus, UniProt Q62976).
T1 construct: made in house; host or cells: CHO cells, transient transfection; sucrose-gradient membrane preparation
Briefly: Channel activity (NPo) in POPE/POPS bilayers, cbv1 homomers. The format is biochemical. From the text:
BK channel-forming slo1 cDNA (cbv1 isoform; AY330293) was cloned from rat cerebral artery SM cells, and inserted into pcDNA3.1 vector as described. BK β1 cDNA (KCNMB1 product; NP_011452; FJ154955) were isolated from rat cerebral artery SM cells and cloned as described. β4 cDNA (KCNMB4; NP_055320; AY028605) were generously provided by Dr. Ligia Toro. CHO cells were transiently transfected with cbv1 ± β1-, or β4-carrying pcDNA3.1 using X-tremeGENE HP (Sigma-Aldrich). Mutations to β1/4 cDNAs were conducted by Genscript, with sequences being confirmed to be >99% identical to KCNMB1 product; NP_011452 or β4 KCNMB4; NP_055320; respectively. β1/4 and mutant constructs were flag-tagged (DYKDDDDK-tag) by Genscript services for subsequent immunoprecipitation and use in microscale thermophoresis studies.
Proteins for electrophysiological recordings in artificial lipid bilayers remained untagged. Cells were transiently transfected as described above, pelleted and re-suspended on ice in 10 ml of buffer solution of the following composition (mM): 30 KCl, 2 MgCl2, 10 HEPES, 5 EGTA; pH 7.2. A membrane preparation was obtained using a sucrose gradient as described. Aliquots were stored at −80 °C. BK channel-mediated ionic current was recorded in planar lipid bilayers consisting of a POPE:POPS 3:1 (w/w) mixture. Lipid mixtures were dried under N2 and re-suspended in 25 mg/ml of n-decane BK currents following incorporation into horizontal bilayers at 300/30 mM cis/trans gradient as detailed elsewhere. Ion currents were obtained during a 10-min gap-free recording at 0 mV in the presence of 0.01, 10 μM PROG, 10 μM PROG-oxime, or vehicle control (dimethyl sulfoxide; DMSO). Currents were obtained in gap-free mode using a Warner BC-525D amplifier, low pass-filtered at 1 kHz and sampled at 5 kHz with Digidata 1550B/pCLAMP 11 (Molecular Devices). For comparison with previous data from us[16],[17],[45]–[47], studies were conducted at 20–22 °C. PROG stock, oxime stock or vehicle control (DMSO) was added to the bilayer cis chamber to reach final concentrations (0.01–10 µM), with all compounds being dissolved with the same concentration of DMSO (0.1%); n = 5–10 for each group.
Patch-clamp and bilayer data were analyzed using Clampfit 10.7 software (Molecular Devices). NPo was used as an index of channel steady-state activity where N = number of channels in the patch (defined as a maximal number of opening levels at Po≤1) and Po=single channel open probability. Drug-induced NPo changes were determined by comparing baseline NPo (i.e., NPo with the patch/cell perfused with bath solution) to the NPo from the same patch/cell exposed to the agent under study (DMSO/PROG/oxime) dissolved in bath solution. NPo and mean open time values were automatically calculated using Clampfit 10.7, the latter using a 50% threshold detection event.

The values that follow come from paper PMC10636063, “Progesterone activation of β1-containing BK channels involves two binding sites” (Nature Communications, 2023).

SMILES strings stand for the structures. “And” between values parts separate entries of the source, which are not always exact repeats. Identical values can stand only once.

T1 sequence (Q62976 1-1148 isoform Q62976-2): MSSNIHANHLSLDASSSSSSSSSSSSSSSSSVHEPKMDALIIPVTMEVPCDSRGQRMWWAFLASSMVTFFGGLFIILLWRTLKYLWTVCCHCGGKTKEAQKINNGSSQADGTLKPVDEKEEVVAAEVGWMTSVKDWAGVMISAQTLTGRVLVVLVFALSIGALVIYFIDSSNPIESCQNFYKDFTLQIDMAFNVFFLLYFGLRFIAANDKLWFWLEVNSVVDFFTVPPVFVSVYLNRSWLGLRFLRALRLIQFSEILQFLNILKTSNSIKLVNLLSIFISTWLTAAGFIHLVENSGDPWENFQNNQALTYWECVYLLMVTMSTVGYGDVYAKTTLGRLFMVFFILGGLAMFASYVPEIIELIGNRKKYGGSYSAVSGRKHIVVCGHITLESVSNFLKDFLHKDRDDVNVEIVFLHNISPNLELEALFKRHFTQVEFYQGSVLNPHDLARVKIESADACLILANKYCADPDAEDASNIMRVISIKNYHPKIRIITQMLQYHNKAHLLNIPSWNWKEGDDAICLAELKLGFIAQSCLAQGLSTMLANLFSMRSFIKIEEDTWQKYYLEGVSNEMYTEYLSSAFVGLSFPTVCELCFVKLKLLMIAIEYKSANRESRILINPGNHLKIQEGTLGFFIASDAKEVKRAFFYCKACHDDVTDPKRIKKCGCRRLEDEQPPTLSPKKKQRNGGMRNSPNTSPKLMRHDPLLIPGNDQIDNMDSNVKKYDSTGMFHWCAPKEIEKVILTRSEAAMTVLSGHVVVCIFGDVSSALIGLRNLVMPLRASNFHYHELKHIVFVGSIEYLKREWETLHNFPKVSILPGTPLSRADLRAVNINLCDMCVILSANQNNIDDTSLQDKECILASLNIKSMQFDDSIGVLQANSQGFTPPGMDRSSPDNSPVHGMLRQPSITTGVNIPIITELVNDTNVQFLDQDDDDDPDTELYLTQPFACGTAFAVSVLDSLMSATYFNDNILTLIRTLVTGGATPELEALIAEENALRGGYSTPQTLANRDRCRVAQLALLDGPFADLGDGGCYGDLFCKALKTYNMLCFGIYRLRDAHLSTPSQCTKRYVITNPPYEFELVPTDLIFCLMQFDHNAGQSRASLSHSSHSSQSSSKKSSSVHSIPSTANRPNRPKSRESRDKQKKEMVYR

Regarding `CC(=O)[C@H]1CC[C@H]2[C@@H]3CCC4=CC(=O)CC[C@]4(C)[C@H]3CC[C@]12C` [PROG, Progesterone], in assay [1], the “effect on EtOH-induced vasoconstriction” value is on record as “blunted EtOH-induced vasoconstriction at all alcohol concentrations”. Also, the NPo/NPobasal in assay [2] (10 µM PROG, min 2, single records) was 1.014 and 0.7178 and 0.9853 and 1 and 0.9322; in assay [2] (10 µM PROG, min 4, single records), 1.047 and 1.067 and 1.015 and 1.069 and 1.029; in assay [2] (10 µM PROG, min 5, single records) it was 1.023 and 1.182 and 1.11 and 1.053 and 1.066; in assay [2] (10 µM PROG, min 6, single records) it was 1.028 and 1.207 and 1.088 and 1.041 and 1.129; in assay [2] (10 µM PROG, min 7, single records), 0.8935 and 1.1318 and 1.162 and 1.118 and 1.064; in assay [2] (10 µM PROG, min 8, single records), 1.148 and 1.63 and 1.096 and 1.061 and 1.045. In assay [2] (10 µM PROG, min 10, single records), the NPo/NPobasal was 1.394 and 1.416 and 1.11 and 0.7114 and 1.049. Besides, in assay [2] (10 µM PROG, single records (Fig 1I)), the “maximal activity (NPo/NPobasal)” value is 1.053 and 1.066 and 1.023 and 1.182 and 1.11. The “action on channel activity (NPo)” value in assay [2] (10 μM, up to 10 min) is “consistently failed to activate the homomeric channels”.
